Measurements taken from BindingDB's records for patent US11787766 (Shanghai Ennovabio Pharmaceuticals, 2023).

biological target: Programmed cell death 1 ligand/protein 1 (Homo sapiens, UniProt Q9NZQ7); assay: Homogeneous Time-Resolved Fluorescence (HTRF)
Source text: PD1/PD-L1 binding assay kit (Cisbio, Cat #63ADK000CPDEC) was used, which includes two proteins, Tag 1-PD-L1 and Tag 2-PD-1, and two antibodies, Anti-Tag1-Eu3+ and Anti-Tag2-XL 665. Assay principle: Anti-tag1-Eu3+ is the HTRF donor, and Anti-Tag2-XL 665 is the HTRF acceptor. When Tag 1-PD-L1 and Tag 2-PD-1 interact, the added HTRF donor and the acceptor are close to each other. After the donor receives the excitation energy, it transfers part of the energy to the acceptor, thus producing 665 nm emission signal. When the compound is added to block the PD1/PD-L1 interaction, only 620 nm emission light was detected. The inhibitory effect of the compound was determined by analyzing the ratio of 665 nm/620 nm. Tag 1-PD-L1 was diluted with Diluent buffer (cat #62DLBDDF) to a working concentration of 10 nM, Tag 2-PD-1 was diluted with Diluent buffer to a working concentration of 500 nM, and Anti-Tag1-Eu3+ was diluted with detection buffer (cat #62DB1FDG) by 1:100, Anti-Tag2-XL 665 was diluted with detection buffer by 1:20, and the test compound was diluted with Diluent buffer to a final concentration of 2×. In a 384-well plate, 2 μL of compound was added to each well, and then 4 μL of Tag 1-PD-L1, 4 μL of Tag 2-PD-1 were added and incubated at room temperature for 15 minutes.

Chain of Programmed cell death 1 ligand/protein 1 (Q9NZQ7 whole entry): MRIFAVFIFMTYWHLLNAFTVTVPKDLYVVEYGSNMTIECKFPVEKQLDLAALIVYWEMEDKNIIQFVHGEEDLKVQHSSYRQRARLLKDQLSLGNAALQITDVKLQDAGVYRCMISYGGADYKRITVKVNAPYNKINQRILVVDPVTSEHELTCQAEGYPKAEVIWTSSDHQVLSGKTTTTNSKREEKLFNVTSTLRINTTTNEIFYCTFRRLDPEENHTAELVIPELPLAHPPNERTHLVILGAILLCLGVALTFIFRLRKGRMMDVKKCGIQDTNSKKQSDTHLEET
Chain of Programmed cell death 1 ligand/protein 1 (Q15116 whole entry, further chain): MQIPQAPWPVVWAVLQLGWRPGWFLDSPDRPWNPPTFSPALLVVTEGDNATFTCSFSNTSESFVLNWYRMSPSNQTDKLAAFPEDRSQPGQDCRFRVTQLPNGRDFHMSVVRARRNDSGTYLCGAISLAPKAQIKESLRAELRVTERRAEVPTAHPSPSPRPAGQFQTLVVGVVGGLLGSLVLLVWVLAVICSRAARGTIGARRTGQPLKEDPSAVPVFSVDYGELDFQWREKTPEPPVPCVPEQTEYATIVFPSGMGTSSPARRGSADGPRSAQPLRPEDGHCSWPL

Row | Structure (SMILES) | IC50 [nM]
1 | COc1nc(OCc2cccc(-c3cccc(CO)c3C)c2C)ccc1CNCCNC(C)=O [US11787766, Compound 2] | > 1000
2 | COc1nc(OCc2cccc(-c3cccc(CO)c3C)c2C)ccc1CN [US11787766, Compound 3] | > 1000
3 | COc1nc(OCc2cccc(-c3cccc(COc4ccc(C#N)c(OC)n4)c3C)c2C)ccc1C#N [US11787766, Compound 5] | > 1000
4 | COc1cc(OCc2cccc(-c3cccc(CO)c3C)c2C)cc(OC)c1CN [US11787766, Compound 11] | > 1000
5 | COc1nc(OCc2cccc(-c3cccc(CN)c3C)c2)ccc1CN [US11787766, Compound 16] | > 1000
6 | COc1nc(OCc2cccc(-c3cccc(COc4ccc(CNCCNC(C)=O)c(OC)n4)c3C)c2C)ccc1C#N [US11787766, Compound 17] | > 1000
7 | COc1nc(OCc2cccc(-c3cccc(COc4ccc(CNCCNC(C)=O)c(OC)n4)c3Cl)c2C)ccc1CNCCNC(C)=O [US11787766, Compound 30] | < 10
8 | COc1nc(OCc2cccc(-c3cccc(COc4ccc(CN5C[C@H](O)C[C@H]5CO)c(OC)n4)c3Cl)c2Cl)ccc1CN1C[C@H](O)C[C@H]1CO [US11787766, Compound 69] | < 10
